According to patent US20240166612A1, “ARYLTHIOETHER ACETAMIDE AND RELATED COMPOUNDS AND THEIR USE IN TREATING MEDICAL CONDITIONS” (X-Biotix Therapeutics, Inc., priority 2021, published 2024):
Values after ≈ are worked out from the molar mass of the structure shown.

Key:
[1] = test system: Wild-type P. aeruginosa PAO1; assay: Broth microdilution MIC, wild-type P. aeruginosa PAO1; type: cell-based; conditions: Pseudomonas aeruginosa; wild-type P. aeruginosa PAO1, 37° C., 18 h; read-out: PAO1 WT MIC
Experimental: (§1) Exemplary compounds from the above Examples were tested to determine their minimum inhibitory concentration (MIC) for exemplary strains of Escherichia and Pseudomonas bacteria using broth microdilution methods. Assay procedures and results are described below.
(§2) Broth microdilution assays were conducted according to Clinical and Laboratory Standards Institute guidelines (CLSI, M07-A^11: Clinical and Laboratory Standards Institute. Methods for Dilution Antimicrobial Susceptibility Tests for Bacteria that Grow Aerobically; Approved Standard-11th Edition. Wayne, PA: CLSI, 2018). Briefly, bacterial suspensions were adjusted to a density equivalent to a 0.5 McFarland standard and diluted in sterile, cation-adjusted Mueller-Hinton broth (Beckton Dickinson) to yield a final inoculum between 2×10^5 and 8×10^5 colony-forming units (CFU)/mL. An inoculum volume of 98 μL was added to wells containing 2 μL of 2-fold serial dilutions of drug (prepared in DMSO). All inoculated microdilution trays were incubated in ambient air at 37° C. for 18 h. […] Performance of the assay was monitored by the use of laboratory quality-control strains (S. aureus ATCC 29213 and P. aeruginosa ATCC 27853) and levofloxacin, a compound with a defined MIC spectrum, in accordance with CLSI guidelines (CLSI, M100Ed29: Clinical and Laboratory Standards Institute. Performance Standards for Antimicrobial Susceptibility Testing, 29th Edition. Wayne, PA: CLSI, 2018).
(§3) Multiple enterobacteriaceae strains were tested, including both wild-type strains and multi-drug resistance pump deficient mutants. Specific strains tested included the following: • Wild-type P. aeruginosa PAO1, • P. aeruginosa PAO1 ΔmexABoprM—Disabled multi-drug efflux system Δ(MexAB-OprM), • P. aeruginosa PAO397—PAO1Δ(mexAB-oprM) Δ(mexCD-oprJ) Δ(mexEF-oprN) Δ(mexJK) Δ(mexXY) ΔopmH, • P. aeruginosa LESB58—Clinical isolate; colistin-resistant, isolated in the United Kingdom in 1988 from a patient with cystic fibrosis • E. coli JW0452-3 (BW25113 JacrA::kan)—Disabled multi-drug efflux system (AcrAB-TolC).
(§4) Experimental results are provided in Table 11, which provides MIC values for wild-type P. aeruginosa PAO1 (“PAO1 WT MIC”), P. aeruginosa PAO ΔmexABoprM (“PAO1 KO MIC”), P. aeruginosa PAO397 (“PAO397 KO MIC”), P. aeruginosa LESB58 (“LESB58”), and E. coli JW0452-3 (BW25113 JacrA::kan) (“E. coli KO MIC”).

P. aeruginosa LESB58 = assay: Broth microdilution MIC, P. aeruginosa LESB58; type: cell-based; conditions: Pseudomonas aeruginosa; P. aeruginosa LESB58 clinical isolate, colistin-resistant, 37° C., 18 h
Experimental: as §1, §2, §3, §4

[2] = molecular target: T1, recombinant LpxA enzyme (P. aeruginosa) (Pseudomonas aeruginosa, UniProt Q9X6P4); assay: LpxA in vitro substrate acylation assay with RapidFire MS analysis (P. aeruginosa); type: biochemical; conditions: P. aeruginosa enzyme 0.5 nM, PaACP-C10, 30 min
T1 sequence (Q9X6P4 1-258): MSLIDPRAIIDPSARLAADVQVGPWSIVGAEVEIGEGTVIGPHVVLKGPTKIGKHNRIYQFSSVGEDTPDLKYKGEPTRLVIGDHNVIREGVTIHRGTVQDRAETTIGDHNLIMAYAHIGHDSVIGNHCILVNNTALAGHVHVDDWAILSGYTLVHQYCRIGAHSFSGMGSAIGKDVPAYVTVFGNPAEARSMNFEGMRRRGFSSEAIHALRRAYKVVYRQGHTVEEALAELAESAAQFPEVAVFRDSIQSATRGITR
Experimental: Exemplary compounds from the above Examples were tested for ability to inhibit LpxA activity using an in vitro substrate acylation assay with RapidFire™ MS analysis. Assay procedures and results are described below.
Reactions were carried out in a final volume of 30 μL with 25 mM HEPES (pH 7.3), 150 mM NaCl, 2 mM DTT, 0.01% BSA, 5 μM UDP-GlcNac, recombinant LpxA enzyme (0.5 nM P. aeruginosa or 1.0 nM E. coli, both produced at Evotec), 0.5 μM acyl-transfer reagent (decanoyl P. aeruginosa acyl-carrier protein [PaACP-C10] or myristoyl E. coli acyl-carrier protein [EcACP-C1-4], both produced at Evotec), and 1% DMSO containing test compound. After 30 min incubation at room temperature, reactions were stopped by addition of 30 μL of 10% TCA in water.
Samples were centrifuged (4350 rpm, 4° C., 5 min), and then subjected to RapidFire™ MS analysis on an Agilent RapidFire 300 coupled to an Agilent 6460 triple-quadrupole mass spectrometer. Analytes were retained on a C4 (type A) cartridge using the following solvents and flow rates: • Pump 1—H2O with 5 mM NH4OAc at 2.0 mL/min, • Pump 2—MeOH/H2O (90/10) at 1.5 mL/min, • Pump 3—MeOH/H2O (90/10) at 0.5 mL/min, and • Pump 4—ACN (organic)/H2O (aqueous). Substrate and product of the reaction were detected in negative mode ESI-MS/MS by MRM (multiple reaction monitoring) of transitions 606.0/385.0 (UDP-GlcNAc substrate) and 776.2/385.0 (UDP-3-O—(R-3-hydroxydecanoyl)-GlcNAc product, for P. aeruginosa LpxA assay) or 832.2/385.0 (UDP-3-O—(R-3-hydroxymyristoyl)-GlcNAc product, for E. coli LpxA assay).
For IC50 determinations, peak areas of the substrate and product were compared to compute the proportion of product formed by the LpxA enzyme at each compound concentration.

In the case of `N#Cc1ccc(CN(Cc2nnc(N)o2)C(=O)COc2cc(F)cc(F)c2C2CC2)cn1` [compound 85], the MIC [1] is reported as > 64 µg/mL and the MIC (P. aeruginosa LESB58) is reported as 16 to 64 µg/mL (≈ 36.3 to 145 µM).
For `CCc1ccccc1SCC(=O)N(CC(=O)NC)Cc1ccc(-n2cncn2)cc1` [compound 90], the MIC [1] was > 64 µg/mL and the IC50 [2] was 100 to 1000 nM.
In the case of `CNC(=O)CN(Cc1ccc(-n2cncn2)cc1)C(=O)CSc1ccccc1Cl` [compound 91], the MIC [1] is reported as > 64 µg/mL.
`C[C@@H](Sc1cc(F)cc(F)c1Cl)C(=O)N(Cc1nnc(N)o1)Cc1ccc(C#N)cc1F` [compound 98] was tested, and the MIC [1] was > 64 µg/mL and the MIC (P. aeruginosa LESB58) was > 64 µg/mL.
`N#Cc1ccc(CN(Cc2nnc(N)o2)C(=O)/C=C/c2ccccc2Cl)c(F)c1` [compound 99] was tested, and the MIC [1] was > 64 µg/mL and the MIC (P. aeruginosa LESB58) was > 64 µg/mL.
In the case of `CCc1c(F)cc(F)cc1O[C@@H](C)C(=O)N(Cc1nnc(N)o1)Cc1ccc(C#N)cc1F` [compound 101], the MIC [1] is reported as > 64 µg/mL and the MIC (P. aeruginosa LESB58) is reported as > 64 µg/mL.
For `C[C@H](Sc1cc(F)cc(F)c1Cl)C(=O)N(Cc1nnc(N)o1)Cc1ccc(C#N)cc1F` [compound 103], the MIC [1] was > 64 µg/mL and the MIC (P. aeruginosa LESB58) was > 64 µg/mL.
Work on `[2H]C([2H])(Oc1cc(F)cc(F)c1C([2H])([2H])C([2H])([2H])[2H])C(=O)N(Cc1nnc(N)o1)Cc1ccc(S(N)(=O)=O)cc1F` [compound 111, N-[(5-Amino-1,3,4-oxadiazol-2-yl)methyl]-2,2-dideuterio-2-[3,5-difluoro-2-(1,1,2,2,2-pentadeuterioethyl)phenoxy]-N-[(2-fluoro-4-sulfamoyl-phenyl)methyl]acetamide] yielded an MIC [1] of 16 to 64 µg/mL (≈ 31.6 to 126 µM) and an MIC (P. aeruginosa LESB58) of 1 to 16 µg/mL (≈ 1.97 to 31.6 µM).
`[2H]CC([2H])c1c(F)cc(F)cc1OCC(=O)N(Cc1nnc(N)o1)Cc1ccc(C#N)cc1F` (stereo not drawn) [compound 112] gave an MIC [1] of 1 to 16 µg/mL (≈ 2.24 to 35.8 µM) and an MIC (P. aeruginosa LESB58) of 1 to 16 µg/mL (≈ 2.24 to 35.8 µM).
For `[2H]C([2H])C([2H])([2H])c1ccccc1OCC(=O)N(Cc1nnc(N)o1)Cc1ccc(C#N)cc1F` [compound 113], the MIC [1] was > 64 µg/mL and the MIC (P. aeruginosa LESB58) was 16 to 64 µg/mL (≈ 38.7 to 155 µM).
With `[2H]C([2H])(Oc1ccccc1C([2H])([2H])C([2H])([2H])[2H])C(=O)N(Cc1nnc(N)o1)Cc1ccc(C#N)cc1F` [compound 114] the MIC [1] was > 64 µg/mL and the MIC (P. aeruginosa LESB58) was 16 to 64 µg/mL (≈ 38.4 to 154 µM).
With `N#Cc1ccc(CN(Cc2nnc(N)o2)C(=O)CSc2cc(CN)ccc2Cl)cn1` [compound 115] the MIC [1] was > 64 µg/mL.
With `C[C@H](Oc1ccccc1Cl)C(=O)N(Cc1ccc(C#N)cc1)Cc1nnc(N)o1` [compound 117] the IC50 [2] was > 1000 nM.
For `N#Cc1ccc(CN(Cc2nnc(N)o2)C(=O)CSc2ccccc2CC(F)(F)F)c(F)c1` [compound 118], the MIC [1] was > 64 µg/mL and the MIC (P. aeruginosa LESB58) was > 64 µg/mL.
For `NCCOc1ccc(Cl)c(SCC(=O)N(Cc2ccc(C(N)=O)c(C(=O)O)c2)Cc2nnc(N)o2)c1` [compound 119], the IC50 [2] was > 1000 nM.
In the case of `Nc1nnc(CN(Cc2ccc(S(N)(=O)=O)cc2)C(=O)COc2cc(F)cc(F)c2Cl)o1` [compound 120], the MIC [1] is reported as > 64 µg/mL and the MIC (P. aeruginosa LESB58) is reported as 16 to 64 µg/mL (≈ 32.8 to 131 µM).
With `N#Cc1ccc(CN(Cc2nnc(N)o2)C(=O)COc2ccc(F)cc2Cl)c(F)c1` [compound 121] the MIC [1] was > 64 µg/mL and the MIC (P. aeruginosa LESB58) was > 64 µg/mL.
